Experimental data: patent US8148391B2 (Cephalon, Inc., priority 2006, dated 2012)
Where two headings read alike, the source gives them in different places.

Legend:
[1] = target: T1, c-Met (cytoplasmic domain) (Homo sapiens, UniProt P08581); experiment: c-Met Kinase Assay (same methods as for ALK, with modifications); format: biochemical
T1 construct: 10 ng/mL c-Met (cytoplasmic domain, Invitrogen Corporation #PV3143); purchased Invitrogen Corporation PV3143
Summary of the method: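 Europium-labeled PT66 antibody (Eu-N1) detects substrate phosphorylation on wells coated with phospholipase C-γ at 10 μg/mL. The kinase, the cytoplasmic domain of c-Met at 10 ng/mL, starts the reaction, which proceeds 15 minutes at 37° C.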

[2] = target: T2, baculovirus-expressed ALK (Homo sapiens, UniProt Q9UM73); experiment: ALK Kinase Assay (ELISA-type, time-resolved fluorescence); format: biochemical
T2 construct: host or cells: baculovirus expression system
Summary of the method: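 Plates coated with phospholipase C-γ substrate (10 μg/mL in TBS); reaction started with 30 ng/ml ALK and run 15 min at 37° C. Phosphorylated substrate detected with Eu-N1-labeled PT66 antibody. IC50 from sigmoidal variable-slope fit of percent inhibition vs log concentration.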

[3] = c-Met kinase inhibition, 1 μM ATP, read-out: cMet Activity
[4] = ALK kinase inhibition, 1 μM ATP, read-out: ALK Activity
[5] = c-Met kinase inhibition, 1 μM ATP (Km level), read-out: cMet Activity
[6] = ALK kinase inhibition, 1 μM ATP (Km level), read-out: ALK Activity
[7] = 1 μM ATP (Km level), read-out: cMet Activity (c-Met Kinase Inhibition, IC50)
[8] = 1 μM ATP (Km level), read-out: ALK Activity (ALK Kinase Inhibition, IC50)
[9] = 1 μM ATP (Km level), 10 ng/mL c-Met, read-out: cMet Activity (c-Met kinase inhibition, IC50 class)
[10] = 1 μM ATP (Km level), 30 ng/ml ALK, 37° C., 15 minutes, read-out: ALK Activity (ALK kinase inhibition, IC50 class)

T1 sequence (P08581 956-1390 limits assumed): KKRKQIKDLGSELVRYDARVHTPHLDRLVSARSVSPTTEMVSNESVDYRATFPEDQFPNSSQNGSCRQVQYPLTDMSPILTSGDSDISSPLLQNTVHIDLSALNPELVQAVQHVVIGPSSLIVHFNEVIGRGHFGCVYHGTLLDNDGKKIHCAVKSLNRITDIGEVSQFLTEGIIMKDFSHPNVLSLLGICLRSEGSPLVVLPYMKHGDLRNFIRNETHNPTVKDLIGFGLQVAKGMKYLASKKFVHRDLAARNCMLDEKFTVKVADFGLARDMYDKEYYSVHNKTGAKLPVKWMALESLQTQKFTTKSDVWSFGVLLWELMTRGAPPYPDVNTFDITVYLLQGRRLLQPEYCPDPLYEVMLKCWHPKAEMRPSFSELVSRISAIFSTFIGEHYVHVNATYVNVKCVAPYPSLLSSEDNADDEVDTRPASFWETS
T2 sequence (Q9UM73 19-1620): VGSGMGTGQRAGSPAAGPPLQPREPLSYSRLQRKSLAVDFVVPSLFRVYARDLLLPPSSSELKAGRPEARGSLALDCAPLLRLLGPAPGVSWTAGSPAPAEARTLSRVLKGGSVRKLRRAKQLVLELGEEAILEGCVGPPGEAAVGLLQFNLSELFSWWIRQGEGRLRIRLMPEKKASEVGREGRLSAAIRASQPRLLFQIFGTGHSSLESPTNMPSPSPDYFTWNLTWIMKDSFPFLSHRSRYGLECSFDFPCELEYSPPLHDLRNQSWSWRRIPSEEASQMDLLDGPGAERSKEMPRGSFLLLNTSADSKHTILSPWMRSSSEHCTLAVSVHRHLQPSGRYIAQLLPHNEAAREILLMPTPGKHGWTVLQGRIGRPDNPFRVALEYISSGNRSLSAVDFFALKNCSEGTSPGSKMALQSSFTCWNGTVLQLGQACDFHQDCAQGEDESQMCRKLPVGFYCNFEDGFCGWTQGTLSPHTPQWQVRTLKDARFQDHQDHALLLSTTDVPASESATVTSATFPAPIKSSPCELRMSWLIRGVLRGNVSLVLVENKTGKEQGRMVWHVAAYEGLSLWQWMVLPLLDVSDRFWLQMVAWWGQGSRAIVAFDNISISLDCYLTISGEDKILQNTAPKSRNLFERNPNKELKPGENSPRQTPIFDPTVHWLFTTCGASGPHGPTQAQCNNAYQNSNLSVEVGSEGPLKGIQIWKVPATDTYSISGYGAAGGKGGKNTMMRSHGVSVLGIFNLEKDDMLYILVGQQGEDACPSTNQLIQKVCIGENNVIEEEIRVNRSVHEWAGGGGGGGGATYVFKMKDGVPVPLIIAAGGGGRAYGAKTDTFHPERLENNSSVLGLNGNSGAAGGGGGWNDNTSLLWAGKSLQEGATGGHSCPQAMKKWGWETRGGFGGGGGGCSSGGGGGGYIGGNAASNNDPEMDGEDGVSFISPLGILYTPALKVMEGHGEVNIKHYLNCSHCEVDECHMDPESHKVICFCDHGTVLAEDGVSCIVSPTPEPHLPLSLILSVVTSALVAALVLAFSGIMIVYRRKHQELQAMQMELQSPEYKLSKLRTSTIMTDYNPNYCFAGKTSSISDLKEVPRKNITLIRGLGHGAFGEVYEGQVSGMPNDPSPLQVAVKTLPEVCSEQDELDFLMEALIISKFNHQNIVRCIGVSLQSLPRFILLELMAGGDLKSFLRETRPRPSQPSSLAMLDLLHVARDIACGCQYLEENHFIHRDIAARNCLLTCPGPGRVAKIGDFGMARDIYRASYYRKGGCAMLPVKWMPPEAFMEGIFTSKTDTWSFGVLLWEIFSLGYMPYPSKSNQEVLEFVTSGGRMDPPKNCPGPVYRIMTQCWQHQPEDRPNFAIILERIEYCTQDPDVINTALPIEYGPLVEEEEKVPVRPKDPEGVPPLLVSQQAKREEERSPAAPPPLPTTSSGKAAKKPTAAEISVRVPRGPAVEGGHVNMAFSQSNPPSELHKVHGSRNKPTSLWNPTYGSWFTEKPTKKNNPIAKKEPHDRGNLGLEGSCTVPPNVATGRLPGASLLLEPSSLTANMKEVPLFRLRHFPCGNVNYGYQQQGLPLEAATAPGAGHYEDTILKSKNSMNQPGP

CCN1C(=O)CCC(C)(C)c2ccc(Nc3ncc(Cl)c(Nc4ccccc4OCC#N)n3)cc21 [Example 1580, {2-[5-Chloro-2-(1-ethyl-5,5-dimethyl-2-oxo-2,3,4,5-tetrahydro-1H-benzo[b]azepin-8-ylamino)-pyrimidin-4-ylamino]-phenoxy}-acetonitrile]
IC50 [1, 3]: 100 to 1000 nM | IC50 [2, 4]: < 100 nM

CCN(CC)CCN1CCNC(=O)c2ccc(Nc3ncc(Cl)c(Nc4ccccc4C(=O)NC)n3)cc21 [Example 415, 2-{5-Chloro-2-[1-(2-diethylamino-ethyl)-5-oxo-2,3,4,5-tetrahydro-1H-benzo[e][1,4]diazepin-8-ylamino]-pyrimidin-4-ylamino}-N-methylbenzamide]
IC50 [1, 5]: 100 to 1000 nM | IC50 [2, 6]: < 100 nM

CCNC(=O)c1cccc(F)c1Nc1nc(Nc2cc3c(cc2OC)CCN(CC(F)F)CC3)ncc1Cl [Example 777, 2-{5-Chloro-2-[3-(2,2-difluoro-ethyl)-8-methoxy-2,3,4,5-tetrahydro-1H-benzo[d]azepin-7-ylamino]-pyrimidin-4-ylamino}-N-ethyl-3-fluoro-benzamide]
IC50 [1, 7]: 1000 to 10000 nM | IC50 [2, 8]: < 100 nM

CNC(=O)c1cccc(F)c1Nc1nc(Nc2ccc3c(c2)-c2nccn2CCC3)ncc1Cl [Example 1844, 2-[5-Chloro-2-(5,6-dihydro-4H-1,3a-diaza-benzo[e]azulen-9-ylamino)-pyrimidin-4-ylamino]-3-fluoro-N-methyl-benzamide]
IC50 [1, 3]: < 100 nM | IC50 [2, 4]: < 100 nM

COc1c(Nc2ncc(Cl)c(Nc3ccccc3S(=O)(=O)N3CCCC3)n2)ccc2c1CCCC(NCCO)C2 (stereo not drawn) [Example 964, 2-(2-{5-Chloro-4-[2-(pyrrolidine-1-sulfonyl)-phenylamino]-pyrimidin-2-ylamino}-1-methoxy-6,7,8,9-tetrahydro-5H-benzocyclohepten-6-ylamino)-ethanol]
IC50 [1, 7]: > 10000 nM | IC50 [2, 8]: < 100 nM

CCOC(=O)N1C2CCC1c1cc(Nc3ncc(Cl)c(Nc4ccccc4C(=O)NC)n3)c(Cl)cc1C2 (stereo not drawn) [Example 74, 5-Chloro-4-[5-chloro-4-(2-methylcarbamoyl-phenylamino)-pyrimidin-2-ylamino]-12-aza-tricyclo[7.2.1.0*2,7*]dodeca-2(7),3,5-triene-12-carboxylic acid ethyl ester]
IC50 [1, 5]: > 10000 nM | IC50 [2, 6]: 100 to 1000 nM

CCN1CCCOc2cc(Nc3ncc(Cl)c(Nc4c(F)cccc4C(=O)NC)n3)c(F)cc21 [Example 1691, 2-[5-Chloro-2-(9-ethyl-2-fluoro-6,7,8,9-tetrahydro-5-oxa-9-aza-benzocyclohepten-3-ylamino)-pyrimidin-4-ylamino]-3-fluoro-N-methyl-benzamide]
IC50 [1, 3]: < 100 nM | IC50 [2, 4]: < 100 nM

CC(C)(F)CN1CCc2ccc(Nc3ncc(Cl)c(N[C@@H]4CCCC[C@H]4NS(C)(=O)=O)n3)cc2CC1 [Example 40, N-((1R,2R)-2-{5-Chloro-2-[3-(2-fluoro-2-methyl-propyl)-2,3,4,5-tetrahydro-1H-benzo[d]azepin-7-ylamino]-pyrimidin-4-ylamino}-cyclohexyl)-methanesulfonamide]
IC50 [1, 5]: 1000 to 10000 nM | IC50 [2, 6]: < 100 nM

CCN1CCc2ccc(Nc3ncc(Cl)c(NCCCC(=O)NC)n3)cc2CC1 [Example 212, 4-[5-Chloro-2-(3-ethyl-2,3,4,5-tetrahydro-1H-benzo[d]azepin-7-ylamino)-pyrimidin-4-ylamino]-N-methyl-butyramide]
IC50 [1, 5]: 1000 to 10000 nM | IC50 [2, 6]: 1000 to 10000 nM

COC(=O)CN1CCN(C)c2cc(Nc3ncc(Cl)c(Nc4ccccc4NS(C)(=O)=O)n3)ccc2C1 [Example 472, {8-[5-Chloro-4-(2-methanesulfonylamino-phenylamino)-pyrimidin-2-ylamino]-1-methyl-1,2,3,5-tetrahydro-benzo[e][1,4]diazepin-4-yl}-acetic acid methyl ester]
IC50 [1, 5]: 100 to 1000 nM | IC50 [2, 6]: < 100 nM

COc1cc2c(cc1Nc1ncc(Cl)c(Nc3ccccc3S(=O)(=O)N(C)C)n1)CCC(NCCO)CC2 (stereo not drawn) [Example 1089, 2-{5-Chloro-2-[7-(2-hydroxy-ethylamino)-3-methoxy-6,7,8,9-tetrahydro-5H-benzocyclohepten-2-ylamino]-pyrimidin-4-ylamino}-N,N-dimethyl-benzenesulfonamide]
IC50 [1, 9]: 1000 to 10000 nM | IC50 [2, 10]: < 100 nM

COCCN1CCc2ccc(Nc3ncc(Cl)c(Nc4c(OC)cccc4C(=O)NCC#N)n3)cc2CC1 [Example 1063, 2-{5-Chloro-2-[3-(2-methoxy-ethyl)-2,3,4,5-tetrahydro-1H-benzo[d]azepin-7-ylamino]-pyrimidin-4-ylamino}-N-cyanomethyl-3-methoxy-benzamide]
IC50 [1, 9]: 100 to 1000 nM | IC50 [2, 10]: 1000 to 10000 nM

COc1ccc(Nc2nc(Nc3cc4c(cc3OC)CCN(CC3COCCO3)CC4)ncc2Cl)c(-n2cccn2)c1 (stereo not drawn) [Example 636, 5-Chloro-N*2*-(3-[1,4]dioxan-2-ylmethyl-8-methoxy-2,3,4,5-tetrahydro-1H-benzo[d]azepin-7-yl)-N*4*-(4-methoxy-2-pyrazol-1-yl-phenyl)-pyrimidine-2,4-diamine]
IC50 [1, 7]: > 10000 nM | IC50 [2, 8]: < 100 nM

CNC(=O)CN1CCc2cc(Nc3ncc(Cl)c(N[C@@H]4CCCC[C@H]4NS(C)(=O)=O)n3)c(OC)cc2CC1 [Example 1112, 2-{7-[5-Chloro-4-((1R,2R)-2-methanesulfonylamino-cyclohexylamino)-pyrimidin-2-ylamino]-8-methoxy-1,2,4,5-tetrahydro-benzo[d]azepin-3-yl}-N-methyl-acetamide]
IC50 [1, 9]: > 10000 nM | IC50 [2, 10]: < 100 nM

CCN1CC(=O)N(CC)c2cc(Nc3ncc(Cl)c(Nc4ccccc4S(=O)(=O)N(C)C)n3)c(OC)cc2C1 [Example 738, 2-[5-Chloro-2-(1,4-diethyl-7-methoxy-2-oxo-2,3,4,5-tetrahydro-1H-benzo[e][1,4]diazepin-8-ylamino)-pyrimidin-4-ylamino]-N,Ndimethyl-benzenesulfonamide]
IC50 [1, 7]: > 10000 nM | IC50 [2, 8]: < 100 nM

C#CCN1CCN(C)c2cc(Nc3ncc(Cl)c(Nc4ccccc4C(=O)N(C)CC#C)n3)ccc2C1 [Example 488, 2-[5-Chloro-2-(1-methyl-4-prop-2-ynyl-2,3,4,5-tetrahydro-1H-benzo[e][1,4]diazepin-8-ylamino)-pyrimidin-4-ylamino]-N-methyl-N-prop-2-ynyl-benzamide]
IC50 [1, 5]: < 100 nM | IC50 [2, 6]: < 100 nM

CNC(=O)c1cccc(F)c1Nc1nc(Nc2ccc3c(c2)-n2cccc2C=CO3)ncc1Cl [Example 1269, 2-[5-Chloro-2-(6-oxa-10b-aza-benz[e]azulen-9-ylamino)-pyrimidin-4-ylamino]-3-fluoro-N-methyl-benzamide]
IC50 [1, 9]: < 100 nM | IC50 [2, 10]: 100 to 1000 nM

CNC(=O)c1scc(C)c1Nc1nc(Nc2ccc3c(c2)-c2nccn2CCC3)ncc1Cl [Example 1846, 3-[5-Chloro-2-(5,6-dihydro-4H-1,3a-diaza-benzo[e]azulen-9-ylamino)-pyrimidin-4-ylamino]-4-methyl-thiophene-2-carboxylic acid methylamide]
IC50 [1, 3]: 100 to 1000 nM | IC50 [2, 4]: 1000 to 10000 nM

CNC(=O)CN1CCc2cc(Nc3ncc(Cl)c(Nc4cc(C(N)=O)ccc4OC)n3)c(OC)cc2CC1 [Example 1138, 3-[5-Chloro-2-(8-methoxy-3-methylcarbamoylmethyl-2,3,4,5-tetrahydro-1H-benzo[d]azepin-7-ylamino)-pyrimidin-4-ylamino]-4-methoxy-benzamide]
IC50 [1, 9]: > 10000 nM | IC50 [2, 10]: 100 to 1000 nM

Cn1ccnc1-c1ccccc1Nc1nc(Nc2ccc3c(c2)CCC(NCC(F)(F)F)CC3)ncc1Cl (stereo not drawn) [Example 655, 5-Chloro-N*4*-[2-(1-methyl-1H-imidazol-2-yl)-phenyl]-N*2*-[7-(2,2,2-trifluoro-ethylamino)-6,7,8,9-tetrahydro-5H-benzocyclohepten-2-yl]-pyrimidine-2,4-diamine]
IC50 [1, 7]: 100 to 1000 nM | IC50 [2, 8]: < 100 nM

COCCN1CCc2ccc(Nc3ncc(Cl)c(N[C@@H]4CCC[C@H](NS(C)(=O)=O)C4)n3)cc2CC1 (relative stereo) [Example 1380, rel-N-((1S,3R)-3-{5-Chloro-2-[3-(2-methoxy-ethyl)-2,3,4,5-tetrahydro-1H-benzo[d]azepin-7-ylamino]-pyrimidin-4-ylamino}-cyclohexyl)-methanesulfonamide]
IC50 [1, 9]: > 10000 nM | IC50 [2, 10]: 1000 to 10000 nM

COc1ccc(Nc2ncc(Cl)c(N[C@H]3[C@@H](C(N)=O)[C@@H]4C=C[C@H]3C4)n2)c2c1CCCC(N1CCOCC1)C2 (single isomer, unassigned) [Example 943]
IC50 [1, 7]: > 10000 nM | IC50 [2, 8]: 1000 to 10000 nM

CCN1C(=O)C(NC(=O)COC)CC(C)(C)c2ccc(Nc3ncc(Cl)c(Nc4c(F)cccc4C(=O)NC)n3)cc21 (stereo not drawn) [Example 1644, 2-{5-Chloro-2-[1-ethyl-3-(2-methoxy-acetylamino)-5,5-dimethyl-2-oxo-2,3,4,5-tetrahydro-1H-benzo[b]azepin-8-ylamino]-pyrimidin-4-ylamino}-3-fluoro-N-methyl-benzamide]
IC50 [1, 3]: < 100 nM | IC50 [2, 4]: 100 to 1000 nM

CNC(=O)c1sccc1Nc1nc(Nc2ccc3c(c2)-n2ccnc2CCC3)ncc1Cl [Example 1840, 3-[5-Chloro-2-(5,6-dihydro-4H-3,10b-diaza-benzo[e]azulen-9-ylamino)-pyrimidin-4-ylamino]-thiophene-2-carboxylic acid methylamide]
IC50 [1, 3]: 100 to 1000 nM | IC50 [2, 4]: 100 to 1000 nM
